# Assay results from PubChem BioAssay (NCI).
#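 Briefly, cells in 96-well plates were exposed to five compound concentrations for 48 h, and endpoints were estimated by linear interpolation. GI50: concentration for 50% inhibition of growth. At the TGI there is no net growth.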
# Experiments:
# Experiment in all cases: NCI tumour cell line growth inhibition, 48 h
# A549 NSCLC = system: A549 NSCLC
# HCT-116 colon = system: HCT-116 colon
# HCT-15 colon = system: HCT-15 colon
# KM12 colon = system: KM12 colon
# NCI-H460 lung = system: NCI-H460 lung
# OVCAR-4 ovarian = system: OVCAR-4 ovarian
# RPMI-8226 leukemia = system: RPMI-8226 leukemia
# RXF 393 renal = system: RXF 393 renal
# SF-539 CNS = system: SF-539 CNS
# UACC-62 melanoma = system: UACC-62 melanoma
SMILES,TGI (A549 NSCLC) [µM],TGI (HCT-116 colon) [µM],TGI (HCT-15 colon) [µM],TGI (KM12 colon) [µM],TGI (NCI-H460 lung) [µM],TGI (OVCAR-4 ovarian) [µM],TGI (RPMI-8226 leukemia) [µM],TGI (RXF 393 renal) [µM],TGI (SF-539 CNS) [µM],TGI (UACC-62 melanoma) [µM],GI50 (A549 NSCLC) [µM],GI50 (HCT-116 colon) [µM],GI50 (HCT-15 colon) [µM],GI50 (KM12 colon) [µM],GI50 (NCI-H460 lung) [µM],GI50 (OVCAR-4 ovarian) [µM],GI50 (RPMI-8226 leukemia) [µM],GI50 (RXF 393 renal) [µM],GI50 (SF-539 CNS) [µM],GI50 (UACC-62 melanoma) [µM]
CN(/N=C/c1cccc2cccnc12)c1c([N+](=O)[O-])cc([N+](=O)[O-])cc1[N+](=O)[O-],> 100,> 100,> 100,> 100,> 100,> 100,> 100,> 100,> 100,> 100,,,,,,,,,,
Nc1nc(=O)n([C@@H]2CS[C@H](CO)O2)cc1F,> 100,> 100,> 100,> 100,> 100,> 100,> 100,> 100,> 100,> 100,> 100,> 100,> 100,> 100,> 100,> 100,> 100,> 100,> 100,> 100
Cc1ccc(-c2nc(-c3cn(C)c4ncccc34)cs2)cc1,21.3,12.3,21.3,14,14.9,46.4,> 69.8,13.7,18.7,16.3,5.62,3.11,3.01,1.2,3.43,12.8,7.37,2.99,5.59,3.17
Cc1cccc(C)c1Nc1nc(C)c(C(=O)CC(=O)C(=O)Nc2c(C(C)C)cccc2C(C)C)s1,> 100,> 100,> 100,> 100,> 100,> 100,> 100,> 100,> 100,> 100,,,,,,,,,,
CCOC(=O)c1cnn2c3ccccc3n(S(=O)(=O)c3ccc(OC)cc3)c12,> 100,> 50.4,> 100,21.9,> 100,> 100,28.2,,0.868,> 100,0.483,0.305,0.119,0.196,0.753,1.58,0.37,0.232,0.252,0.574
Cc1cc(Nc2cc(N3CCN(C)CC3)nc(Sc3ccc(NC(=O)C4CC4)cc3)n2)n[nH]1,> 10,> 10,> 10,> 10,> 10,> 10,> 10,> 10,> 10,> 10,2.18,0.273,5.38,0.0461,0.537,> 10,4.02,2.17,1.92,1.53
O=C(c1ccccc1)n1c(-c2ccccc2)cs/c1=N\S(=O)(=O)c1ccc(N2N=C3c4ccccc4CC3C2c2cccs2)cc1 (centres undefined),> 100,> 100,> 100,> 100,> 100,> 100,> 100,> 100,> 100,87.2,39.5,30.5,61.4,38.3,> 100,> 100,32.3,37.1,58.6,27.3
CCOC(=O)/C=C/C(=O)[C@H](CC(C)C)NC(=O)[C@H](Cc1ccccc1)NC(=O)OCc1ccccc1,39.6,9.43,3.78,27.8,38.2,26.6,5.97,3.64,6.04,16.5,20.7,2.87,1.83,12.2,16.2,12.9,2.13,2.03,2.45,3.99
C#CC1(O)CCC2[C@@H]3CCc4cc(Oc5nc(F)nc(-c6c7ccccc7cn6C)n5)ccc4C3CC[C@@]21C (some centres undefined),> 100,> 100,> 100,> 100,> 100,> 100,> 70.7,> 100,> 100,> 100,,,,,,,,,,
COc1cc(/C=C/c2cc(/C=C/c3ccc(O)c(OC)c3)n(C(=O)Nc3ccc(Cl)cc3)n2)ccc1O,10.3,2.54,11.6,1.84,1.85,5.73,2.48,0.789,2.41,2.24,0.653,0.354,0.43,0.354,0.327,0.803,0.376,0.261,0.501,0.551
Cc1cnc(Nc2ccc(N3CCN(C)CC3)cc2)nc1Nc1ccc(Cl)c(NS(=O)(=O)C(C)(C)C)c1,1.81,2.73,3.18,5.39,10.3,23.7,1.31,0.959,1.84,1.68,0.339,0.0917,0.168,0.0943,0.267,0.18,0.136,0.136,0.434,0.0808
OC12c3ccccc3C3CCC4(OCCO4)C3C1c1ccccc12 (centres undefined),> 100,> 100,> 100,> 100,> 100,> 100,> 100,> 100,> 100,> 100,,,,,,,,,,
